Measured values: patent US20230310534A1, “QUENCHERS THAT SLOW, DECREASE, OR INHIBIT THE FORMATION OF CHEMIEXCITATION-INDUCED CYCLOBUTANE PYRIMIDINE DIMERS” (L'OREAL, priority 2017, published 2023)

Tests used:
Type in all cases: biochemical
[1] = Melanin oxidation assay (peroxynitrite/melanin chemiluminescence quenching); conditions: peroxynitrite, melanin and DBAS in DMSO; measured at 150 seconds and 500 seconds
Source text: An easy and fast assay was developed to measure quenching of chemiluminescence from the triplet carbonyl of a cleaved dioxetane that was created when peroxynitrite (ONOO—) reacted with melanin. As such, it measured both triplet quenching and any scavenging activity that prevented the chemiexcitation reaction from starting. DMSO was used as a solvent for the entire reaction, DBAS to enhance the luminescence and a liquid scintillation counter set to single-photon mode to detect the luminescence signal.
In this assay, peroxynitrite, melanin, and DBAS were incubated in DMSO in the absence or presence of test agents, and light emission quenching (%) was measured at 150 seconds and 500 seconds (FIG. 1).

[2] = Peroxynitrite radical absorbance capacity test, dihydrorhodamine 123 indicator; conditions: activity grade 0-4
Protocol: Peroxynitrite radical absorbance capacity tests were conducted to measure the capacity of an antioxidant material to quench peroxynitrite. Dihydrorhodamine 123 was used as an indicator of peroxynitrite in tubo for peroxynitrite radical absorbance capacity tests with Varioskan Flush. […]

[3] = Superoxide radical absorbance capacity (SORAC) test, WST-1 probe; conditions: activity grade 0-4
Protocol: Superoxide radical absorbance capacity tests were conducted to measure the capacity of an antioxidant material to dismutate superoxide anion. The Varioskan Flush was employed to measure the superoxide dismutase-catalyzed dismutation of the superoxide anion in the presence of the absorbance probe, water-soluble tetrazolium salt (WST-1). The superoxide radical antioxidant (SORAC) assay is based on an inhibition assay and is suitable for evaluating superoxide dismutase or superoxide dismutase-like activities in samples.

Structure (SMILES): O=c1oc2c(O)c(O)cc3c(=O)oc4c(O)c(O)cc1c4c23 [Ellagic acid]
- light emission quenching (hit) [1]: showed a quenching effect
- Anti-peroxynitrite [2]: 4
- Anti-superoxide [3]: 2

Structure (SMILES): O=C(O[C@@H]1Cc2c(O)cc(O)cc2O[C@@H]1c1cc(O)c(O)c(O)c1)c1cc(O)c(O)c(O)c1 [Epigallocatechin Gallate]
- light emission quenching (hit) [1]: showed a quenching effect
- Anti-peroxynitrite [2]: 4
- Anti-superoxide [3]: 4

Structure (SMILES): COc1cc(/C=C/C(=O)O)ccc1O [Ferulic Acid]
- light emission quenching (hit) [1]: showed a quenching effect
- Anti-peroxynitrite [2]: 4
- Anti-superoxide [3]: 1

Structure (SMILES): CC1=C(/C=C/C(C)=C/C=C/C(C)=C/C=C/C=C(C)/C=C/C=C(C)/C=C/C2=C(C)CCCC2(C)C)C(C)(C)CCC1 [beta-carotene]
- light emission quenching (hit) [1]: showed a quenching effect

Structure (SMILES): O=C(O)c1cccc(C(=O)O)n1 [dipicolinic acid]
- light emission quenching (hit) [1]: showed a quenching effect

Structure (SMILES): C/C=C/C=C/C(=O)O [sorbic acid]
- light emission quenching (hit) [1]: showed a quenching effect

Structure (SMILES): CC(C)=CCC/C(C)=C/CC/C(C)=C/CC/C=C(\C)CC/C=C(\C)CCC=C(C)C [squalene]
- light emission quenching (hit) [1]: showed a quenching effect
